Laboratory results taken from PubChem BioAssay (NCI).
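Each compound was tested at five concentrations against cells in 96-well plates for 48 hours. Abbreviation: GI50, concentration required for 50% inhibition of growth. Definition used: TGI = concentration required for complete inhibition of growth.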

Tests used:
Test in all cases: DTP human tumour cell line panel, 48 h
[1] = test system: OVCAR-4 ovarian
[2] = test system: LOX IMVI melanoma
[3] = test system: CCRF-CEM leukemia
[4] = test system: K-562 leukemia
[5] = test system: A549 NSCLC
[6] = test system: HS 578T breast
[7] = test system: UACC-62 melanoma
[8] = test system: SK-MEL-2 melanoma
[9] = test system: OVCAR-3 ovarian
[10] = test system: HL-60(TB) leukemia
[11] = test system: OVCAR-8 ovarian
[12] = test system: RPMI-8226 leukemia
[13] = test system: SF-539 CNS
[14] = test system: 786-0 renal
[15] = test system: NCI-H460 lung
[16] = test system: MDA-MB-231 breast
[17] = test system: U251 CNS
[18] = test system: SF-295 CNS
[19] = test system: A498 renal
[20] = test system: NCI-H226 lung
[21] = test system: MALME-3M melanoma
[22] = test system: SNB-75 CNS
[23] = test system: SK-MEL-5 melanoma
[24] = test system: NCI-H522 lung
[25] = test system: SK-MEL-28 melanoma
[26] = test system: RXF 393 renal
[27] = test system: IGROV1 ovarian
[28] = test system: UACC-257 melanoma

COc1cc2c(cc1OC)C(C(CCCCCC(CCC(C)C)C1NCCc3cc(OC)c(OC)cc31)CCC(C)C)NCC2 (stereo unspecified)
GI50 [1]: 1.54 µM
TGI [1]: 2.92 µM
GI50 [2]: 0.194 µM
TGI [2]: 0.408 µM
GI50 [3]: 0.489 µM
TGI [3]: 2.13 µM
GI50 [4]: 0.201 µM
TGI [4]: 0.441 µM
GI50 [5]: 0.98 µM
TGI [5]: 2.44 µM
GI50 [6]: 1.42 µM
TGI [6]: 3.43 µM
GI50 [7]: 1.59 µM
TGI [7]: 2.97 µM
GI50 [8]: 2.1 µM
TGI [8]: 3.72 µM
GI50 [9]: 1.61 µM
TGI [9]: 3.12 µM
GI50 [10]: 0.878 µM
TGI [10]: 2.55 µM
GI50 [11]: 1.01 µM
TGI [11]: 2.52 µM
GI50 [12]: 0.327 µM
TGI [12]: 0.974 µM
GI50 [13]: 1.79 µM
TGI [13]: 3.27 µM
GI50 [14]: 1.73 µM
TGI [14]: 3.46 µM
GI50 [15]: 0.217 µM
TGI [15]: 0.436 µM
GI50 [16]: 0.791 µM
TGI [16]: 2.41 µM
GI50 [17]: 0.285 µM
TGI [17]: 0.979 µM
GI50 [18]: 1.64 µM
TGI [18]: 3.43 µM
GI50 [19]: 1.51 µM
TGI [19]: 2.99 µM
GI50 [20]: 1.79 µM
TGI [20]: 3.6 µM
GI50 [21]: 2.01 µM
TGI [21]: 4.03 µM
GI50 [22]: 1.62 µM
TGI [22]: 3.05 µM
GI50 [23]: 1.65 µM
TGI [23]: 3.04 µM
GI50 [24]: 1.72 µM
TGI [24]: 3.24 µM
GI50 [25]: 1.85 µM
TGI [25]: 3.28 µM
GI50 [26]: 1.3 µM
TGI [26]: 2.75 µM
GI50 [27]: 2.08 µM
TGI [27]: 3.94 µM
GI50 [28]: 1.63 µM
TGI [28]: 3.08 µM
